Activity calls are given as the source filed them. No cut-off for these calls is given here.
Key:
[1] = test system: Mus musculus; test: Anticonvulsant activity in mouse assessed as decrease in pentylenetetrazol-induced convulsions at 300 mg/kg, ip at 30 mins; assay type: functional, organism-based; design: dose 300 mg/kg
[2] = test system: Mus musculus; test: Anticonvulsant activity in ip dosed mouse assessed as decrease in pentylenetetrazol-induced convulsions at 30 mins; assay type: functional; conditions: 0.5 h
[3] = test system: Mus musculus; test: Anticonvulsant activity in mouse assessed as decrease in pentylenetetrazol-induced convulsions up to 300 mg/kg, ip at 30 mins; assay type: functional, organism-based; design: dose 300 mg/kg

CCN1C(=O)N([C@H](C)c2ccccc2)[C@]2(OC(=O)c3ccccc32)C1=O
Activity [1]: Active

CCC1(c2ccccc2)C(=O)NC(=O)NC1=O [PHENOBARBITAL]
ED50 [2]: 25 mg/kg

CCN1C(=O)N([C@H](C)c2ccccc2)[C@@]2(OC(=O)c3ccccc32)C1=O
Activity [3]: inactive

CCN1C(=O)N([C@@H](C)c2ccccc2)[C@]2(OC(=O)c3ccccc32)C1=O
Activity [3]: inactive

CCN1C(=O)N([C@@H](C)c2ccccc2)[C@@]2(OC(=O)c3ccccc32)C1=O
ED50 [2]: 300 mg/kg
